ChEMBL document CHEMBL1201862, “PubChem BioAssay data set” (2004)
The source made the active and inactive calls. No stated cut-off is given here; in the data, actives have a measured IC50 and inactives only a lower limit.

Molecular target: Envelope glycoprotein gp160 (Human immunodeficiency virus 1, UniProt Q6QLK5)
Test: inhibitors of HIV fusion peptide binding, primary screen, biochemical, uHTS, fluorescence dequenching (AID 1986)

Envelope glycoprotein gp160, sequence (Q6QLK5 whole entry, the tested form may be a part): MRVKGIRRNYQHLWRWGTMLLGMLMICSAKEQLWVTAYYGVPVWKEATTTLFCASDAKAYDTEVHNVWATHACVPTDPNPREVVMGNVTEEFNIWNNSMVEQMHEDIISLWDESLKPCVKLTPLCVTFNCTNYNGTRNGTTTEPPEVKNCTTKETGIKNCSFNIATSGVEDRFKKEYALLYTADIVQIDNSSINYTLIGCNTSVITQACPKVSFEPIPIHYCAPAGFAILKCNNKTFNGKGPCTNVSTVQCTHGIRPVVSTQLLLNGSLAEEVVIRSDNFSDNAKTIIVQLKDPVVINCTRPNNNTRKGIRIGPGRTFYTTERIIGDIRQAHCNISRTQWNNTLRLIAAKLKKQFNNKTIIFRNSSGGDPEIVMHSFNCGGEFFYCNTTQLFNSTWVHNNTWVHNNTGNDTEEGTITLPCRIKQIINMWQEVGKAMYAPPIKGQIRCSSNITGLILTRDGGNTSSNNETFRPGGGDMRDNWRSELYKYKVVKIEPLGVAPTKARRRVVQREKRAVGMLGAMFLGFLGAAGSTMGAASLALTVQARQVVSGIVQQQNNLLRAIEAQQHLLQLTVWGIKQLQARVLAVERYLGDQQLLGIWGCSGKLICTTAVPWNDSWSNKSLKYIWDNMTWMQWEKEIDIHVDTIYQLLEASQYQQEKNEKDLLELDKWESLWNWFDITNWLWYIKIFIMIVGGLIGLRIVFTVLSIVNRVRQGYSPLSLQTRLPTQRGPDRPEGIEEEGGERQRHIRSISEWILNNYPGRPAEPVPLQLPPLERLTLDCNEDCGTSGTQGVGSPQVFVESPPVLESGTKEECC

Question: With CCOC(=O)C1=C(C)N=c2s/c(=C\c3ccc(OCC(=O)O)c(OC)c3)c(=O)n2C1c1ccc(OC)cc1 (stereo unspecified) as the compound, how does the IC50 read?
Answer: 23.9 µM (active)
